MIC data for 14 molecules are collected here from patent US20240270762A1, “PENICILLIN-BINDING PROTEIN INHIBITORS” (priority 2021, published 2024).

Converted amounts (≈) assume the structure as drawn.

Holding throughout (assay): microbe, parasite or virus in culture
Type in all cases: cell-based

Assay [1] deals with B. humptydooensis ATCC BAA-2767. The conditions noted are these: Burkholderia humptydooensis, ATCCBAA2767, read-out: Minimum inhibitory concentration (MIC), B. humptydooensis ATCC BAA-2767.
A further assay relates to P. aeruginosa CDC-0095. The conditions noted are these: Pseudomonas aeruginosa, CDC0095, read-out: Minimum inhibitory concentration, P. aeruginosa CDC-0095.
Another assay deals with P. aeruginosa ATCC 35151. The settings on record: Pseudomonas aeruginosa, ATCC35151, read-out: Minimum inhibitory concentration, P. aeruginosa ATCC 35151.
In the next assay the test system is P. aeruginosa ATCC 27853. The conditions noted are these: Pseudomonas aeruginosa, ATCC27853, read-out: Minimum inhibitory concentration, P. aeruginosa ATCC 27853.
Another assay has as its system A. baumannii CDC-0033. The conditions noted are these: Acinetobacter baumannii, CDC0033, read-out: MIC, A. baumannii CDC-0033.

On to `O=C(NCCCN1CCN(C(=O)NC(C(=O)N[C@H]2Cc3ccc(F)c(C(=O)O)c3OB2O)c2cc(F)c(O)c(O)c2Cl)C(=O)C1=O)c1cc(F)ncc1F` (mixture of isomers) [Example 405], for which the MIC in assay [1] is 2 to 4 µg/mL; in the assay with P. aeruginosa CDC-0095, 2 to 4 µg/mL; in the assay on P. aeruginosa ATCC 35151, below 1 µg/mL; with P. aeruginosa ATCC 27853 it was 2 to 4 µg/mL; in the assay with A. baumannii CDC-0033, 2 to 4 µg/mL.
Consider `O=C(NCCCN1CCN(C(=O)N[C@@H](C(=O)N[C@H]2Cc3ccc(F)c(C(=O)O)c3OB2O)c2cc(F)c(O)c(O)c2Cl)C(=O)C1=O)c1cc(F)nc(F)c1` (racemic) [Example 401], for which the MIC was above 128 µg/mL in assay [1]; below 1 µg/mL in the assay on P. aeruginosa CDC-0095; below 1 µg/mL in the assay on P. aeruginosa ATCC 35151; 2 to 4 µg/mL (≈ 2.56 to 5.12 µM) in the assay with P. aeruginosa ATCC 27853; 2 to 4 µg/mL (≈ 2.56 to 5.12 µM) in the assay on A. baumannii CDC-0033.
With `O=C(NCCCN1CCN(C(=O)N[C@@H](C(=O)N[C@H]2Cc3ccc(F)c(C(=O)O)c3OB2O)c2cc(F)c(O)c(O)c2Cl)C(=O)C1=O)c1ccc(O)cc1F` (racemic) [Example 417], the MIC was above 128 µg/mL in assay [1]; 8 to 16 µg/mL (≈ 10.3 to 20.6 µM) in the assay with P. aeruginosa CDC-0095; below 1 µg/mL with P. aeruginosa ATCC 35151; 8 to 16 µg/mL (≈ 10.3 to 20.6 µM) in the assay on P. aeruginosa ATCC 27853; 2 to 4 µg/mL (≈ 2.57 to 5.14 µM) with A. baumannii CDC-0033.
`O=C(NCCCN1CCN(C(=O)N[C@@H](C(=O)N[C@H]2Cc3ccc(F)c(C(=O)O)c3OB2O)c2cc(F)c(O)c(O)c2Cl)C(=O)C1=O)c1c(F)cc(O)cc1F` (racemic) [Example 420]: the MIC was 3 µg/mL (≈ 3.77 µM) in assay [1]; 2 to 4 µg/mL (≈ 2.51 to 5.03 µM) with P. aeruginosa CDC-0095; below 1 µg/mL in the assay on P. aeruginosa ATCC 35151; 2 to 4 µg/mL (≈ 2.51 to 5.03 µM) with P. aeruginosa ATCC 27853; 2 to 4 µg/mL (≈ 2.51 to 5.03 µM) with A. baumannii CDC-0033.
Consider `O=C(O)c1c(F)ccc2c1OB(O)[C@@H](NC(=O)[C@@H](NC(=O)N1CCN(C3CCN(C(=O)Nc4ccc(O)cc4)CC3)C1=O)c1cc(F)c(O)c(O)c1Cl)C2` (single isomer, unassigned) [Example 467], for which the MIC is 2 to 4 µg/mL (≈ 2.59 to 5.18 µM) in assay [1]; below 1 µg/mL in the assay with P. aeruginosa CDC-0095; below 1 µg/mL in the assay with P. aeruginosa ATCC 35151; below 1 µg/mL in the assay with P. aeruginosa ATCC 27853; below 1 µg/mL in the assay with A. baumannii CDC-0033.
With `O=C(O)c1c(F)ccc2c1OB(O)[C@@H](NC(=O)[C@H](NC(=O)N1CCN(C3CCN(C(=O)Nc4ccc(O)cc4)CC3)C1=O)c1cc(F)c(O)c(O)c1Cl)C2` (single isomer, unassigned) [Example 468], the MIC (in assay [1]; in the assay on P. aeruginosa CDC-0095; in the assay with P. aeruginosa ATCC 35151; in the assay on P. aeruginosa ATCC 27853; in the assay on A. baumannii CDC-0033) was below 1 µg/mL each time.
In the case of `O=C(NCCCN1CCN(C(=O)N[C@H](C(=O)N[C@H]2Cc3ccc(F)c(C(=O)O)c3OB2O)c2cc(F)c(O)c(O)c2Cl)C(=O)C1=O)c1ccc(O)cc1Cl` (single isomer, unassigned) [Example 470], the MIC in assay [1] is 8 to 16 µg/mL (≈ 10.1 to 20.1 µM); with P. aeruginosa CDC-0095, below 1 µg/mL; with P. aeruginosa ATCC 35151 it was below 1 µg/mL; with P. aeruginosa ATCC 27853, 2 to 4 µg/mL (≈ 2.52 to 5.04 µM); in the assay with A. baumannii CDC-0033 it was 8 to 16 µg/mL (≈ 10.1 to 20.1 µM).
In the case of `O=C(NCCCN1CCN(C(=O)N[C@@H](C(=O)N[C@H]2Cc3ccc(F)c(C(=O)O)c3OB2O)c2cc(F)c(O)c(O)c2Cl)C(=O)C1=O)c1ccc(O)cc1Cl` (single isomer, unassigned) [Example 471], the MIC in assay [1] is below 1 µg/mL; in the assay with P. aeruginosa CDC-0095, below 1 µg/mL; with P. aeruginosa ATCC 35151 it was below 1 µg/mL; with P. aeruginosa ATCC 27853 it was below 1 µg/mL; in the assay on A. baumannii CDC-0033 it was 2 to 4 µg/mL (≈ 2.52 to 5.04 µM).
`O=C(NCCCN1CCN(C(=O)N[C@H](C(=O)N[C@H]2Cc3ccc(F)c(C(=O)O)c3OB2O)c2cc(F)c(O)c(O)c2Cl)C(=O)C1=O)c1cc(F)c(O)cc1F` (single isomer, unassigned) [Example 472]: the MIC in assay [1] was 2 to 4 µg/mL (≈ 2.51 to 5.03 µM); in the assay on P. aeruginosa CDC-0095, below 1 µg/mL; in the assay on P. aeruginosa ATCC 35151, below 1 µg/mL; in the assay on P. aeruginosa ATCC 27853 it was 2 to 4 µg/mL (≈ 2.51 to 5.03 µM); in the assay with A. baumannii CDC-0033, 8 to 16 µg/mL (≈ 10.1 to 20.1 µM).
Take `O=C(NCCCN1CCN(C(=O)N[C@@H](C(=O)N[C@H]2Cc3ccc(F)c(C(=O)O)c3OB2O)c2cc(F)c(O)c(O)c2Cl)C(=O)C1=O)c1cc(F)c(O)cc1F` (single isomer, unassigned) [Example 473]: the MIC in assay [1] is below 1 µg/mL; in the assay with P. aeruginosa CDC-0095 it was below 1 µg/mL; with P. aeruginosa ATCC 35151, below 1 µg/mL; in the assay on P. aeruginosa ATCC 27853 it was 2 to 4 µg/mL (≈ 2.51 to 5.03 µM); in the assay with A. baumannii CDC-0033 it was 2 to 4 µg/mL (≈ 2.51 to 5.03 µM).
As for `O=C(O)c1c(F)ccc2c1OB(O)[C@@H](NC(=O)C(NC(=O)N1CCN(C3CCN(C(=O)c4c(F)ccc(O)c4F)CC3)C(=O)C1=O)c1cc(F)c(O)c(O)c1Cl)C2` (stereo partly drawn) [Example 308, (3R)-3-(2-(2-chloro-5-fluoro-3,4-dihydroxyphenyl)-2-(4-(1-(2,6-difluoro-3-hydroxybenzoyl)piperidin-4-yl)-2,3-dioxopiperazine-1-carboxamido)acetamido)-7-fluoro-2-hydroxy-3,4-dihydro-2H-benzo[e][1,2]oxaborinine-8-carboxylic acid], the MIC in assay [1] was 2 to 4 µg/mL (≈ 2.43 to 4.87 µM); in the assay with P. aeruginosa CDC-0095, 2 to 4 µg/mL (≈ 2.43 to 4.87 µM); with P. aeruginosa ATCC 35151, below 1 µg/mL; in the assay with P. aeruginosa ATCC 27853, below 1 µg/mL; in the assay with A. baumannii CDC-0033, 2 to 4 µg/mL (≈ 2.43 to 4.87 µM).
Consider `O=C(O)c1c(F)ccc2c1OB(O)[C@@H](NC(=O)C(NC(=O)N1CCN(C3CCN(C(=O)c4cc(O)cc(O)c4)CC3)C(=O)C1=O)c1cc(F)c(O)c(O)c1Cl)C2` (stereo partly drawn) [Example 309, (3R)-3-(2-(2-chloro-5-fluoro-3,4-dihydroxyphenyl)-2-(4-(1-(3,5-dihydroxybenzoyl)piperidin-4-yl)-2,3-dioxopiperazine-1-carboxamido)acetamido)-7-fluoro-2-hydroxy-3,4-dihydro-2H-benzo[e][1,2]oxaborinine-8-carboxylic acid], for which the MIC in assay [1] is below 1 µg/mL; in the assay with P. aeruginosa CDC-0095, 2 to 4 µg/mL (≈ 2.49 to 4.99 µM); with P. aeruginosa ATCC 35151, below 1 µg/mL; with P. aeruginosa ATCC 27853, 2 to 4 µg/mL (≈ 2.49 to 4.99 µM); with A. baumannii CDC-0033, 2 to 4 µg/mL (≈ 2.49 to 4.99 µM).
Turning to `CN(CCCN1CCN(C(=O)NC(C(=O)N[C@H]2Cc3ccc(F)c(C(=O)O)c3OB2O)c2cc(F)c(O)c(O)c2Cl)C(=O)C1=O)C(=O)c1cccc(O)c1` (stereo partly drawn) [Example 310, (3R)-3-(2-(2-chloro-5-fluoro-3,4-dihydroxyphenyl)-2-(4-(3-(3-hydroxy-N-methylbenzamido)propyl)-2,3-dioxopiperazine-1-carboxamido)acetamido)-7-fluoro-2-hydroxy-3,4-dihydro-2H-benzo[e][1,2]oxaborinine-8-carboxylic acid], the MIC in assay [1] is below 1 µg/mL; with P. aeruginosa CDC-0095, 2 to 4 µg/mL (≈ 2.58 to 5.17 µM); with P. aeruginosa ATCC 35151, below 1 µg/mL; in the assay with P. aeruginosa ATCC 27853, below 1 µg/mL; in the assay with A. baumannii CDC-0033, 2 to 4 µg/mL (≈ 2.58 to 5.17 µM).
`O=C(NCCCN1CCN(C(=O)NC(C(=O)N[C@H]2Cc3ccc(F)c(C(=O)O)c3OB2O)c2cc(F)c(O)c(O)c2Cl)C(=O)C1=O)c1ccncc1F` (stereo partly drawn) [Example 400, (3R)-3-(2-(2-chloro-5-fluoro-3,4-dihydroxyphenyl)-2-(4-(3-(3-fluoroisonicotinamido)propyl)-2,3-dioxopiperazine-1-carboxamido)acetamido)-7-fluoro-2-hydroxy-3,4-dihydro-2H-benzo[e][1,2]oxaborinine-8-carboxylic acid]: the MIC in assay [1] was 2 to 4 µg/mL (≈ 2.62 to 5.24 µM); in the assay with P. aeruginosa CDC-0095 it was 2 to 4 µg/mL (≈ 2.62 to 5.24 µM); in the assay on P. aeruginosa ATCC 35151 it was below 1 µg/mL; in the assay with P. aeruginosa ATCC 27853 it was 2 to 4 µg/mL (≈ 2.62 to 5.24 µM); with A. baumannii CDC-0033 it was 2 to 4 µg/mL (≈ 2.62 to 5.24 µM).
